The text below walks through data of BindingDB's records for PubMed 7520908 (Janssen Research Foundation, 1994).

“And” between values parts separate entries of the source, which are not always exact repeats. Equal values may be shown once.

Targets include D(3) dopamine receptor (Rattus norvegicus, UniProt P19020); D(1A) dopamine receptor (Rattus norvegicus, UniProt P18901); D(2) dopamine receptor (Rattus norvegicus, UniProt P61169).
Assay [1] addresses 5-hydroxytryptamine receptor 1B (Rattus norvegicus, UniProt P28564).
The target in assay [2] is 5-hydroxytryptamine receptor 2A (Rattus norvegicus, UniProt P14842).
Assay [3] deals with T1, 5-hydroxytryptamine receptor 2C (Sus scrofa, UniProt G7ZKZ7).
T1 sequence (G7ZKZ7 whole entry): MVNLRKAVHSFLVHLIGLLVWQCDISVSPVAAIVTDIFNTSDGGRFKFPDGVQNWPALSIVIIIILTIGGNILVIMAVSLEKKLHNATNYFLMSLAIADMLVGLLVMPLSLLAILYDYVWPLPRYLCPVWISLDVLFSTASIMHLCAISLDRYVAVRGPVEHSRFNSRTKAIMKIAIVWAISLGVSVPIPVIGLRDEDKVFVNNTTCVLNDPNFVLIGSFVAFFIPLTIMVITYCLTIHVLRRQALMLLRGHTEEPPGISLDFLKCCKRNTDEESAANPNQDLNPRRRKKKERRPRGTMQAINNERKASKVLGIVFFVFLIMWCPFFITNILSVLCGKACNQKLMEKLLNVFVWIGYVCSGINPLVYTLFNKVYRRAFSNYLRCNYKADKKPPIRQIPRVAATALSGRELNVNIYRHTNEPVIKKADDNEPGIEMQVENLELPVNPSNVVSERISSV

Assay [4] has as its target 5-hydroxytryptamine receptor 1B (Homo sapiens, UniProt P28222).
The target in assay [5] is T2, 5-hydroxytryptamine receptor 3A (Mus musculus, UniProt P23979).
T2 sequence (P23979 whole entry): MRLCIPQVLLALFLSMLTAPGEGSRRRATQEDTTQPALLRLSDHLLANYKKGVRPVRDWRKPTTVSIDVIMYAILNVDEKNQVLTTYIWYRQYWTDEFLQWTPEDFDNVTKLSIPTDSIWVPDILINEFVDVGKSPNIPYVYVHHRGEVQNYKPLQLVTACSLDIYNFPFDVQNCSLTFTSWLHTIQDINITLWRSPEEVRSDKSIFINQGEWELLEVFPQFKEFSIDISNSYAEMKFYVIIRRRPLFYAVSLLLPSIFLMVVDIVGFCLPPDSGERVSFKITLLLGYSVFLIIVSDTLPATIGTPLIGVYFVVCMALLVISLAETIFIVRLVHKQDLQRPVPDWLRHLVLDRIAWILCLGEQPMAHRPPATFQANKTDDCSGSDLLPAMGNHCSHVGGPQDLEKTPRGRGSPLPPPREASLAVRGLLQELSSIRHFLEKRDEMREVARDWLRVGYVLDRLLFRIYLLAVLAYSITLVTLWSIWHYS

In assay [6] the target is 5-hydroxytryptamine 1D receptor (Bos taurus, UniProt Q8MI13).
Sequence of 5-hydroxytryptamine 1D receptor (Q8MI13 whole entry): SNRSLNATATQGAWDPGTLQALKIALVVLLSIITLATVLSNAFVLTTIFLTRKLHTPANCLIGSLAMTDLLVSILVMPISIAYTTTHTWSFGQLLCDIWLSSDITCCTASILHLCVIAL

Sequence of D(2) dopamine receptor (P61169 whole entry): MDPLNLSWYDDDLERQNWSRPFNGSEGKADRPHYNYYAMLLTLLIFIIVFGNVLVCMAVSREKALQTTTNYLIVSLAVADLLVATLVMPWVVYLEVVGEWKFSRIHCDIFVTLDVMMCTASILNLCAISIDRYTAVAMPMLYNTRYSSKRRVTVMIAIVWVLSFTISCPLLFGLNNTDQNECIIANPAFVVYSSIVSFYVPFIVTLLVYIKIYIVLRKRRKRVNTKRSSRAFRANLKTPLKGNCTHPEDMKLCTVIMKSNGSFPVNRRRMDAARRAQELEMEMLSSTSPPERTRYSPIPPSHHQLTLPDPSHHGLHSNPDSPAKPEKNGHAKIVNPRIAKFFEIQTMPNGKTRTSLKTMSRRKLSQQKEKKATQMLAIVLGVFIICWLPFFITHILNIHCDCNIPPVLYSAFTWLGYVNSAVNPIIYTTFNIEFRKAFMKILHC
Sequence of 5-hydroxytryptamine receptor 1B (Rattus norvegicus, UniProt P28564) (P28564 whole entry): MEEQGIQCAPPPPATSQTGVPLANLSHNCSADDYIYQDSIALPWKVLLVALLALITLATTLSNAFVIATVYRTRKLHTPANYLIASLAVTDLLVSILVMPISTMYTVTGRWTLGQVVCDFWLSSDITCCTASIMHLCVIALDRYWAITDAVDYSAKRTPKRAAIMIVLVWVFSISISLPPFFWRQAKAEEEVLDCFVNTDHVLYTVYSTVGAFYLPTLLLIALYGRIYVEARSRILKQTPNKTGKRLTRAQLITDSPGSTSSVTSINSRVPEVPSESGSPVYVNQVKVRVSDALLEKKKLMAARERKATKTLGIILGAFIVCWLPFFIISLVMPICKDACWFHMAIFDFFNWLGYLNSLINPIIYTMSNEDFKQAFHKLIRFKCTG
Sequence of D(1A) dopamine receptor (P18901 whole entry): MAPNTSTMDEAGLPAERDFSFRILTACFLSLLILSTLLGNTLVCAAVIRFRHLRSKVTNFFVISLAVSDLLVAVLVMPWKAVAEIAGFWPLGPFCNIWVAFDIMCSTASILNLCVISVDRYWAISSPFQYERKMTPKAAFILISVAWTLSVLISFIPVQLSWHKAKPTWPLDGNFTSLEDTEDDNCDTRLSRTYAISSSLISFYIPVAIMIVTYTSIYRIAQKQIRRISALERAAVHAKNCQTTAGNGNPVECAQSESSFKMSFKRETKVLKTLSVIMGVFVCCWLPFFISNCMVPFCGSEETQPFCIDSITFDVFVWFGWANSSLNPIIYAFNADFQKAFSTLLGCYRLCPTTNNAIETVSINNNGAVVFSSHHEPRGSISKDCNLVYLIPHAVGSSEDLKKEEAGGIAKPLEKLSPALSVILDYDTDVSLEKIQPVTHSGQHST
Sequence of 5-hydroxytryptamine receptor 2A (P14842 whole entry): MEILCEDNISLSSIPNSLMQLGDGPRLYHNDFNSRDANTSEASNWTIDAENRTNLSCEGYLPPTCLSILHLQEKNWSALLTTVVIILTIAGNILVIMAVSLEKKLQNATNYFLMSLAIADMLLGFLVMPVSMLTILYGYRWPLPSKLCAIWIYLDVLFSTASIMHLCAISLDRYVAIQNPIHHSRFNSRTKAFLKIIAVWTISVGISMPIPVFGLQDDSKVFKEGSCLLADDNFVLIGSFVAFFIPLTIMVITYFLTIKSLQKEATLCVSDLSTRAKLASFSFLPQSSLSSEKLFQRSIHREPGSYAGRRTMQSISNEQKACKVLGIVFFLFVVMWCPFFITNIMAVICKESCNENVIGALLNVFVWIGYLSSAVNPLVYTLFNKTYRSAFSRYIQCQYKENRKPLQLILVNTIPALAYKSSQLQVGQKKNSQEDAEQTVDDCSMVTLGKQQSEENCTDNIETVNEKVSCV
Sequence of 5-hydroxytryptamine receptor 1B (Homo sapiens, UniProt P28222) (P28222 whole entry): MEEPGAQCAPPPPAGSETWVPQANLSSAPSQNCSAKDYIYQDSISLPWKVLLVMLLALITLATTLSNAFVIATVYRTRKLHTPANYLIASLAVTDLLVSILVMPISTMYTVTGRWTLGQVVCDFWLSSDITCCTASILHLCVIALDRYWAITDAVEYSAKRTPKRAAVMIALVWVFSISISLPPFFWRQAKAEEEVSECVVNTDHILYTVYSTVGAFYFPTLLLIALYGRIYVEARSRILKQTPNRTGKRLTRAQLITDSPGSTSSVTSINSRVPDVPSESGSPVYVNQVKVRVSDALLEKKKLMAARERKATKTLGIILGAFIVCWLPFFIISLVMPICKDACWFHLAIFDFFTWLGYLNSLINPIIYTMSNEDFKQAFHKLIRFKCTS
Sequence of D(3) dopamine receptor (P19020 whole entry): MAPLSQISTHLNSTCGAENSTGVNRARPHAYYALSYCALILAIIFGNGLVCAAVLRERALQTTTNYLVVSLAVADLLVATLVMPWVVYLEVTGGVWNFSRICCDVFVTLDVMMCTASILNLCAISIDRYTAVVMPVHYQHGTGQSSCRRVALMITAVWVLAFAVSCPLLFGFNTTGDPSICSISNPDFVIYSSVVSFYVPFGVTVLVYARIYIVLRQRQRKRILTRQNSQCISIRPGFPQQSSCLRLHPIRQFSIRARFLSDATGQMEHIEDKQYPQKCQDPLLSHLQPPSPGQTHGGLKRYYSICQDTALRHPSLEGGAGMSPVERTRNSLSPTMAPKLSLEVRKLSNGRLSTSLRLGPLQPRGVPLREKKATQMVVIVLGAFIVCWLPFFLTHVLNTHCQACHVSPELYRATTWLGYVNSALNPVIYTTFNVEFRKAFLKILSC

As to `Cc1nc2n(c(=O)c1CCN1CCC(c3noc4cc(F)ccc34)CC1)CCCC2` [3-{2-[4-(6-Fluoro-benzo[d]isoxazol-3-yl)-piperidin-1-yl]-ethyl}-2-methyl-6,7,8,9-tetrahydro-pyrido[1,2-a]pyrimidin-4-one(risperidone)], in assay [1], the Ki – broadly, a measure of affinity in units of concentration, obtained from inhibition or displacement – came out at 4000 nM.
`Cc1nc2n(c(=O)c1CCN1CCC(c3noc4cc(F)ccc34)CC1)CCCC2O` (stereo not given) [9-OH-risperidone]: the Ki in assay [2] is 0.22 nM; in assay [3], 47 nM; in assay [4] it was 23 nM; at D(3) dopamine receptor, 13 nM; in [5] it was above 10000 nM; on D(1A) dopamine receptor, 510 nM. In addition, the Ki on D(2) dopamine receptor was 3.5 nM and 3.9 nM and 6.7 nM and 4.6 nM; in assay [1], 3500 nM; in [6], 117 nM.
